From ChEMBL document CHEMBL1147990 (Bioorg Med Chem, 2007)

Biological target: Carbonic anhydrase 5A, mitochondrial (Homo sapiens, UniProt P35218)
Experiment: Inhibition of human carbonic anhydrase 5A

Carbonic anhydrase 5A, mitochondrial, sequence (P35218 whole entry): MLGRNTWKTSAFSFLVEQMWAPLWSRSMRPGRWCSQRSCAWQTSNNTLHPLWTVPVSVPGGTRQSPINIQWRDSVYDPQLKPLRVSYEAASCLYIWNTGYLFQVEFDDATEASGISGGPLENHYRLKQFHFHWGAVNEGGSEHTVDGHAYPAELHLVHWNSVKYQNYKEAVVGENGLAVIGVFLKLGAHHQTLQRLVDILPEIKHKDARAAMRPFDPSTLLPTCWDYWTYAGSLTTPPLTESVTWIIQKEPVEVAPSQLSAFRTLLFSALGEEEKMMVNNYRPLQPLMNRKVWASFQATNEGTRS

`CC1(C)O[C@@H]2[C@@H](CO[C@@]3(COS(N)(=O)=O)OC(C)(C)O[C@@H]23)O1` [TOPIRAMATE] was tested, and the Kd was 25.4 nM.
